According to the NIST ThermoML archive (doi:10.1016/j.jct.2017.02.023):

Experiments:
[1] = refractive index (Na D-line) (dimensionless); xn = mol fraction of the nth substance listed; conditions: 81.5 kPa, Liquid, Standard Abbe refractometry
[2] = xn = mol fraction of the nth substance listed; conditions: 81.5 kPa, Liquid, Vibrating tube method

CNC1CCCCC1 [N-methylcyclohexylamine] + CCCC(C)O
Conditions	mass density, 298.15 K [kg/m3]	mass density, 308.15 K [kg/m3]	mass density, 318.15 K [kg/m3]	mass density, 328.15 K [kg/m3]	refractive index, 298.15 K	refractive index, 308.15 K	refractive index, 318.15 K	refractive index, 328.15 K
[1], x2 = 0	–	–	–	–	1.45306	1.44812	1.4431	1.43809
[1], x2 = 0.1044	–	–	–	–	1.45003	1.44535	1.44061	1.4359
[1], x2 = 0.2039	–	–	–	–	1.44678	1.44217	1.43745	1.43273
[1], x2 = 0.3	–	–	–	–	1.44339	1.43884	1.43417	1.42945
[1], x2 = 0.391	–	–	–	–	1.43985	1.43539	1.43078	1.42612
[1], x2 = 0.4776	–	–	–	–	1.43608	1.43168	1.42715	1.42254
[1], x2 = 0.5621	–	–	–	–	1.43195	1.42759	1.42311	1.41857
[1], x2 = 0.6395	–	–	–	–	1.42779	1.42345	1.419	1.41449
[1], x2 = 0.7115	–	–	–	–	1.42361	1.41932	1.4149	1.41042
[1], x2 = 0.7926	–	–	–	–	1.41862	1.41442	1.41007	1.40562
[1], x2 = 0.8644	–	–	–	–	1.41398	1.40989	1.40561	1.40119
[1], x2 = 0.9338	–	–	–	–	1.40928	1.40524	1.40097	1.39653
[2], x2 = 0	865.2	856.57	847.67	838.68	–	–	–	–
[2], x2 = 0.1044	861.35	852.83	844.04	835.12	–	–	–	–
[2], x2 = 0.2039	857.57	849.03	840.23	831.28	–	–	–	–
[2], x2 = 0.3	853.62	845.09	836.29	827.28	–	–	–	–
[2], x2 = 0.391	849.43	840.92	832.15	823.1	–	–	–	–
[2], x2 = 0.4776	844.86	836.35	827.59	818.52	–	–	–	–
[2], x2 = 0.5621	839.71	831.21	822.49	813.38	–	–	–	–
[2], x2 = 0.6395	834.44	825.96	817.29	808.15	–	–	–	–
[2], x2 = 0.7115	829.18	820.72	812.03	802.91	–	–	–	–
[2], x2 = 0.7926	822.85	814.43	805.84	796.73	–	–	–	–
[2], x2 = 0.8644	817.04	808.68	800.16	791.09	–	–	–	–
[2], x2 = 0.9338	811.24	802.9	794.42	785.33	–	–	–	–
